In patent US20150313801A1, “DETECTION OF CARIOUS DENTIN TISSUE AND REMOVAL THEREOF BY MEANS OF A DENTAL INSTRUMENT” (RLS GLOBAL AB, priority 2012, published 2015):
Entries after “also recorded” stand apart in the source; their conditions may differ.

Key:
[1] = system: carious dentin tissue in infected teeth; assay: Staining of caries-infected tooth slices, retention after NaCl and NaOH incubation (Example 2); settings: for colouring of tooth slice after NaCl and NaOH treatment (Day 4): after 1 M NaCl and 0.5 M NaOH overnight incubations, visible light, UV or fluorescence microscopy; for mode of binding to carious tissue in infected teeth (conclusion): conclusion of Example 2
Protocol: Experiments were performed during 4 days. Whole caries infected tooth was added to an ortho acryl gel, which after hardening was used as a holder prior to […] of brand Zaw Micro Tone, German). Slices, having a thickness of 150 μm, were left over night in each colour to be tested (Day one). On the second day, the colours were washed out by rinsing the slices with MQ water and the teeth sections were photographed under either a microscope (6.7×; visible light), in UV (no microscope) or under a fluorescence microscope (100×). Thereafter, an aqueous salt solution (NaCl, 1 M) was added to the slices and incubated overnight. On the third day the slices were washed with MQ water and thereafter the same detection procedures were used as described above. Finally the tooth slices were exposed to an aqueous solution of NaOH (0.5 M) over night. The washing and detection path were then repeated as described previously (Day 4).

carious dentin tissue [2] = assay: Staining of carious dentin of a pre molar tooth combined with Carisolv excavation (Example 5)
Protocol: Carious dentin tissue of a pre molar tooth was treated with Carisolv® to obtain a cavity and subsequently stained with an aqueous solution of the hydrazine derivative Alexa 594. The concentration of the aqueous solution of the hydrazine derivative Alexa 594 was 15-50 mM. […] Carisolv® was added to the cavity and excavation took place with a hand instrument from Mediteam Dental AB to reach a carious free level. […] A dentist performed tactile control of this surface and confirmed that the surface was free of caries.
The slightly stained surface was subjected to treatment with Carisolv® followed by excavation with a hand instrument. […] It was therefore concluded that all carious dentin tissue of the tooth had been removed. It was concluded that a hydrazine derivative such as Alexa 594 can be used in combination with a chemical means for carious dentin tissue such as Carisolv® for selective detection and removal of carious dentin tissue.

carious dentin tissue [3] = assay: Staining of carious dentin of a pre molar tooth combined with high-speed dental drill (Example 6); settings: 15-50 mM aqueous solution; Diamond/Fissure bur OB 301A FG; repeated several times
Protocol: Carious dentin tissue of a pre molar tooth stained with an aqueous solution of the hydrazine derivative Alexa 594 in a concentration of 15-50 mM was subjected to mechanical treatment by a dental drill until no staining could be visually detected. The dental drill was a high-speed dental drill Diamond/Fissure bur OB 301A FG from Plandent Forssbergs Dental, Sweden. […] The stained surface was subjected to drilling until no staining could be visually detected. A dentist examined the surface visually and with a tactile instrument and concluded that the surface was free of caries. […] Again, drilling of the stained surface took place until no staining could be observed. […] Drilling and staining as described above in this example was repeated several times. […] This is in contrast to the successful selective detection and removal of carious dentin tissue using a hydrazine derivative in combination with a chemical means for treatment of carious dentin tissue as described in Example 5.

healthy dentin tissue [4] = assay: FTIR of healthy dentin tissue treated with hydrazine derivative (Example 3); design: species or system human; settings: 13 mM aqueous solution overnight, FIGS. 3a and 3c
Excerpt: (§1) Extracted permanent human teeth with no previous dental restorations were selected due to their severe carious tissue status and analysed with FTIR within one week after extraction. The outermost part of the carious dental lesions was removed. The remaining dental carious tissue was divided into two layers; one outer layer with discoloured, soft and infected dental carious tissue and one inner layer that was excavated down to the observed uncoloured hard surface of the remaining healthy dentin controlled by tactile procedures.
(§2) Healthy dentin tissue and carious dentin tissue from the innermost layer were collected. This healthy dentin tissue sample and carious dentin tissue sample were then each divided into three samples.
(§3) The healthy dentin tissue sample (26 mg) was divided and treated as follows. […] Fluorescence of bounded hydrazine derivate Lucifer Yellow was checked by a UV lamp. […] The third sample, hereinafter denominated sample S3, (7 mg) and the last procedure was treated with NaBH4 (0.5 M in ethanol) and washed with concentrated ethanol to reduce aldehydes and ketones before the addition of an aqueous solution of the hydrazine derivate Lucifer Yellow (13 mM), repeated rinsing with purified water before dried and analysed.
(§4) Thus, in total 6 samples (three from the healthy dentin tissue and three from the carious dentin tissue) were analysed with FTIR within one week after extraction. […]

carious dentin tissue [5] = assay: FTIR of carious dentin tissue treated with hydrazine derivative (Example 3); design: species or system human
Excerpt: as §1, §2
as §3, with “analysed. […]” for “analysed.”
as §4

carious dentin tissue [6] = assay: TOF-SIMS of carious dentin tissue treated with hydrazine derivative (Example 4)
Protocol: FTIR-ATR and TOF-SIMS analyses were performed on a sample group consisting of carious tissue inner most layers selected and estimated with an exactness of a working dentist. Samples were pooled from 4-6 teeth of inner layer of carious tissue (37 mg). The pooled sample was divided into two subgroups where one was exposed to the hydrazine derivate Lucifer Yellow and further analysed with TOF-SIMS and the other only analysed with FTIR-ATR. An aqueous solution of the hydrazine derivate Lucifer Yellow (1.8 mM) was added to the inner layer carious tissue (19 mg) and after 1 hour exposure washed with an aqueous solution of NaOH (0.5 M) and purified water before dried over vacuum. […] Each sample was attached to double side tape and analysed with a TOF-SIMS instrument (TOF-SIMS IV, CAMECA/IONTOF, GmbH, Germany). Positive secondary ion mass spectra were recorded from different areas of the sample at a size of 200×200 μm^2 and separated in a mass analyser and next compared with known mass spectra from the Ion Spec application (IonTof, GmbH, Germany, ver. 4.1) linked with the TOF-SIMS instrument. Negative secondary ion mass spectra were also recorded but gave no further information. […]
The upper spectrum was recorded for the sample of carious dentin tissue that had been milled but not subjected to treatment with hydrazine (i.e. the carious dentin tissue reference). […]

healthy dentin tissue [7] = assay: TOF-SIMS of healthy dentin tissue treated with hydrazine derivative (Example 4); settings: TOF-SIMS positive spectra
[8] = system: smear layer on healthy dentin tissue; assay: Staining of drilled dentin of an extracted healthy tooth, smear layer detection (Examples 7 and 8)
Protocol: An extracted tooth in a healthy state with no previous dental restoration was subjected to drilling with the dental drill Cera Bur at a speed of approximately 1500 rpm. The dental drill Cera Bur was from the company Comet USA LLC and is described in EP 1 849 429. […] Therefore, the tooth was subjected to a high-speed dental drill resulting in a cavity exposing dentin tissue, i.e. a dentin tooth surface. The high speed dental drill was the high-speed dental drill Diamond/Fissure bur OB 301A FG from Plandent Forssbergs Dental, Sweden. […] The staining was visually detected using the instrument PoliLed SN06LP1121 operated at 460-470 nm, Faro.
The thus formed smear layer stained with Lucifer Yellow was subjected to drilling with the dental drill Cera Bur at a speed of approximately 1500 rpm after which rinsing with water took place. […] It was concluded that the Cera Bur drill removed the smear layer and the resulting dentin tissue was free of smear layer.
It was concluded that the dentin tooth surface was free of smear layer. […]
An extracted tooth in a healthy state with no previous dental restoration was subjected to a high-speed dental drill resulting in a cavity exposing dentin tissue, i.e. a dentin tooth surface. […] The staining was visually detected using the instrument PoliLed SN06LP1121 operated at 460-470 nm, Faro. […]

For “6-(2-carboxy-5-(hydrazinecarbonyl)phenyl)-1,2,2,10,10,11-hexamethyl-2,10-dihydro-1H-pyrano[3,2-g]diquinoline-11-ium-4,8-diyl)methanesulfonate [Alexa Fluor® 594]”, the “colouring of tooth slice after NaCl and NaOH treatment (Day 4)” value (from here on “colouring of tooth slice”) [1] was “still contained colourants”, the “colouring of tooth slice” value ([1]; listed as Alexa Fluor 594 ®) was “staining” and the “mode of binding to carious tissue in infected teeth (conclusion)” value (“mode of binding to carious tissue” for short) [1] was “bind irreversibly”. For the same molecule, the “detection of carious dentin tissue compared with tactile control by a dentist” value (carious dentin tissue [2]) was “better and more sensitive”, the “staining of carious cavity” value (carious dentin tissue [2]; 15-50 mM aqueous solution, cavity obtained with Carisolv) was “intense dark bluish colour” and the “staining of surface judged caries free by tactile control” value (carious dentin tissue [2]; after Carisolv and hand-instrument excavation) was “very slight staining”. The “staining after second Carisolv treatment and excavation” value (carious dentin tissue [2]; final staining attempt) was “no staining took place” and the “staining after drilling with high-speed dental drill” value (carious dentin tissue [3]) was “staining always took place”.
`NNC(=O)CSCC(=O)Nc1ccc(-c2c3ccc(=O)cc-3oc3cc(O)ccc23)c(C(=O)O)c1` [5-(2-2-hydrazinyl-2-oxoethylthio)acetamido)-2-(3-hydroxy-6-oxo-6H-xanthen-9-yl)benzoic acid] was tested, and the “colouring of tooth slice” value [1] was “still contained colourants; also recorded: staining” and the “mode of binding to carious tissue” value [1] was “bind irreversibly”.
With `CC(=O)Nc1cc(S(=O)(=O)[O-])cc2cc(S(=O)(=O)[O-])c(/N=N/c3ccccc3)c(O)c12.[Na+].[Na+]` [Acid red 1] the “staining of tooth slice after incubation with 1 M NaCl” value ([1]; 150 μm slices left overnight in colour, MQ rinse, 1 M NaCl overnight) was “only little staining remained”, the “colouring of tooth slice” value [1] was “no colouring” and the “mode of binding to carious tissue” value [1] was “binds in a reversible way”. For the same molecule, the “effect of rinsing on dye-labelled carious dentin tissue” value ([1]; rinsing, general statement of the description) was “release of the dye bonded to the carious dentin tissue”.
In the case of `Cc1c(CC(=O)NN)c(=O)oc2cc(N)c(S(=O)(=O)O)cc12` [Alexa 350], the “colouring of tooth slice” value [1] is reported as “still contained colourants” and the “mode of binding to carious tissue” value [1] is reported as “bind irreversibly”.
In the case of `NNC(=O)NN1C(=O)c2cc(S(=O)(=O)O)cc3c(N)c(S(=O)(=O)O)cc(c23)C1=O` [Lucifer Yellow], the “colouring of tooth slice” value [1] is reported as “still contained colourants”, the “colouring of tooth slice” value ([1]; listed as Lucifer Yellow sodium salt) is reported as “staining” and the “mode of binding to carious tissue” value [1] is reported as “bind irreversibly”. For the same molecule, the “reaction with healthy dentin tissue” value (healthy dentin tissue [4]) was “no reaction takes place”, the “selectivity carious versus healthy dentin tissue” value (carious dentin tissue [5]; FTIR conclusion) was “selectively reacts with carious dentin tissue” and the “reaction with carious dentin tissue” value (carious dentin tissue [5]; FTIR, peak at 1740 cm-1 no longer present, FIG. 3d) was “reaction has taken place”. For the same molecule, the “selectivity carious versus healthy dentin tissue” value (carious dentin tissue [6]; TOF-SIMS conclusion) was “selectively reacts with carious dentin tissue”, the “bonding to carious dentin tissue” value (carious dentin tissue [6]; TOF-SIMS positive spectra, 1.8 mM, 1 hour exposure, NaOH wash) was “covalently bonded” and the “reaction with healthy dentin” value (healthy dentin tissue [7]) was “did not react with healthy dentin”. The “staining after drilling the smear layer with round type steel dental drill” value ([8]; aqueous solution 15-50 mM, 1500 rpm, rinsing with water) was “resulted in staining” and the “staining of smear layer (conclusion)” value ([8]; smear layer formed by high-speed dental drill on healthy tooth) was “stained this smear layer”.
